Where two headings read alike, the source gives them in different places.
Columns and labels:
[1] = system: chondrocytes isolated from the cartilage of New Zealand white rabbits; test: cells; format: cell-based; settings: Oryctolagus cuniculus, Chondrocyte, read-out: IC50 values for apigenin on chondrocytes
Experimental: During culturing, on Days 1, 2, 4 and 6, IC50 values were measured by a MTT assay based on cell viability.

iNOS = test: Western blotting of iNOS expression in LPS-treated RAW 264.7; format: cell-based, mice; settings: LPS treatment = 100%, upon apigenin treatment
Experimental: A macrophage cell line derived from mice, RAW 264.7 (KCLB 40071), was purchased from the Korean Cell Line Bank. RAW 264.7 cells were seeded in a density of 3×10^6 cells onto 60-mm culture dishes containing DMEM (Dulbecco's Modified Eagle Medium, 12800-017, Gibco) supplemented with 10% FBS (fetal bovine serum, 26140-079, Gibco), 100 U/ml of penicillin and 100 μg/ml streptomycin (15140-122, Gibco), and cultured at 37° C. under 5% CO2 and humidity for 24 hrs. To induce NO production, RAW 264.7 cells were treated with 500 ng/ml of an E. coli cell wall component, lipopolysaccharide (LPS, […], Sigma). […] Herein, LPS was dissolved in distilled water, and apigenin was dissolved in DMSO. Then, the culture medium and a Griess reagent were mixed at a ratio of 1:1 (100 μl: 100 μl) and allowed to stand at room temperature for 10 min. Thereafter, absorbance was measured at 540 nm using a spectrophotometer (Power Wave X340, Bio-Tek). RAW 264.7 cells were treated under the same conditions as in Example 12. […] Herein, for IκBα expression, the cells were treated with LSP for only two hours. […] After protein concentrations in cell lysates were measured, […] protein samples were separated on an 8-16% SDS (sodium dodecyl sulfate) polyacrylamide gel (EC60452, NOVEX). […]

O=c1cc(-c2ccc(O)cc2)oc2cc(O)cc(O)c12 [apigenin, 4′,5,7-trihydroxyflavone]
IC50 ([1]; 24 h): ~200 µM
IC50 ([1]; 48 h): ~100 µM
IC50 ([1]; 96 h): ~40 µM
IC50 ([1]; 144 h): ~30 µM
iNOS expression level (iNOS): 0%

Source: patent publication US20070154540A1 (KMSI CO., LTD., priority 2003, published 2007)
